Measured values as given in PMC2766550 (Peptides, 2009).
Several values for one entry are separate records, joined by “and”; a condition that tells them apart may be missing. Equal values may be shown once. Read-outs that look alike come from different tables or passages of the source. Square brackets hold non-standard residues; d marks the D form. Peptide text beside a SMILES is read from it. dPhe(F5) = N[C@H](Cc1c(F)c(F)c(F)c(F)c1F)C(=O)O

Legend:
hGRP-receptor [1] = biological target: T1, hGRP-receptor (Homo sapiens, UniProt P30550); assay: [3H]inositol phosphate generation, hGRP-receptor transfected Balb 3T3 cells; assay type: cell-based; settings: for [3H]IP hGRPR-R-Balb-3T3 Ag/Antag: agonist/antagonist classification, up to 10 μM
hNMB-receptor [2] = biological target: T2, hNMB-receptor (Homo sapiens, UniProt P28336); assay: Whole cell radioligand binding, hNMB-receptor transfected NCI-H1299 cells
hGRP-receptor [3] = biological target: T1, hGRP-receptor; assay: Whole cell radioligand binding, HuTu-80 cells
hGRP-receptor [4] = biological target: T1, hGRP-receptor; assay: [3H]inositol phosphate generation, HuTu-80 cells; assay type: cell-based; settings: for [3H]IP HuTu-80 (hGRP-R) Ag/Antag: agonist/antagonist classification, up to 10 μM
hBRS-3 receptor = biological target: T3, hBRS-3 receptor (Homo sapiens, UniProt P32247); assay: Whole cell radioligand binding, hBRS-3 transfected Balb 3T3 cells
T3 sequence (P32247 1-399): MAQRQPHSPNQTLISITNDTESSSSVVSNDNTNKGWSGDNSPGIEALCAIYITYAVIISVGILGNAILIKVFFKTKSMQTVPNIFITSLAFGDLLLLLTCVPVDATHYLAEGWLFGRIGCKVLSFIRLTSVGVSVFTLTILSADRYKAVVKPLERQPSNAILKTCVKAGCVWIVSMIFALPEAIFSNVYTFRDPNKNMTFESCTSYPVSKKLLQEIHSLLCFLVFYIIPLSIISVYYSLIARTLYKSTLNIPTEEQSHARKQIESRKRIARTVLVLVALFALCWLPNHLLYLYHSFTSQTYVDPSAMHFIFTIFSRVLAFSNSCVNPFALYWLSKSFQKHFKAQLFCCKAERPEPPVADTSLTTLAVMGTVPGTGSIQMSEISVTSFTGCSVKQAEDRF

hNMB-receptor [5] = biological target: T2, hNMB-receptor; assay: Whole cell radioligand binding, hNMB-receptor transfected Balb 3T3 cells; settings: for IC50: IC50 hNMB-R Balb-3T3, hNMB-receptor transfected Balb 3T3 cells, 125I-[D-Tyr0]NMB, 1 h, 22°C, mean ± S.E.
hNMB-receptor [6] = biological target: T2, hNMB-receptor; assay: cell-based; settings: for [3H]IP NCI-H1299 (hNMB-R) Ag/Antag: agonist/antagonist classification, up to 10 μM
hGRP-receptor [7] = biological target: T1, hGRP-receptor; assay: Whole cell radioligand binding, hGRP-receptor transfected Balb 3T3 cells; settings: b34 values for receptors expressed in Balb 3T3 cells
hNMB-receptor [8] = biological target: T2, hNMB-receptor; assay type: cell-based; settings: for [3H]IP hNMB-R-Balb-3T3 Ag/Antag: agonist/antagonist classification, up to 10 μM; for agonist activity at hNMB-receptor: concentrations up to 10 μM, hNMB-receptor transfected Balb 3T3 or NCI-H1299 cells
hGRP-receptors = settings: cited from earlier work
hNMB-receptor [9] = biological target: T2, hNMB-receptor; settings: cited from earlier work

T1 sequence (P30550 whole entry): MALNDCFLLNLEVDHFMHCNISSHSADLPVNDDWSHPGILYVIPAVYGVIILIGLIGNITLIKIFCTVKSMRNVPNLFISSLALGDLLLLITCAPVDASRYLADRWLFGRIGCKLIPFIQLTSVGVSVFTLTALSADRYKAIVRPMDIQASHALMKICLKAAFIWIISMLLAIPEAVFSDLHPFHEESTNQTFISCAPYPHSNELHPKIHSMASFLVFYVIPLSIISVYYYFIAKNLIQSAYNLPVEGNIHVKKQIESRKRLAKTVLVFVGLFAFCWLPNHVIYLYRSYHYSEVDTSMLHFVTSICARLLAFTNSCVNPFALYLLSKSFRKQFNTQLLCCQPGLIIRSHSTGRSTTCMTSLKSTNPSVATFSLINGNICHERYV
T2 sequence (P28336 whole entry): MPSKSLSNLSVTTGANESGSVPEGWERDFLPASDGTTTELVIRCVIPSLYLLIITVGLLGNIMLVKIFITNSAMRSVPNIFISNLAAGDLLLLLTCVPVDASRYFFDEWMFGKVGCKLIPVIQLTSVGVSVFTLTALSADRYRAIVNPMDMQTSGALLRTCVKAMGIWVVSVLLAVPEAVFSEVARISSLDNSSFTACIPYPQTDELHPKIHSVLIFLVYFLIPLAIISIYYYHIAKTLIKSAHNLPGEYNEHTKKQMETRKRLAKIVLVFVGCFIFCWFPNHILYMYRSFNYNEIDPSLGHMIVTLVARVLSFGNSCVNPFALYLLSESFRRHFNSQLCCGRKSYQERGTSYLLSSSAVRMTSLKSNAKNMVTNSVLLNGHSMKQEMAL

Row | Compound | IC50 (hGRP-receptor [1]) [nM] | IC50 (hNMB-receptor [2]) [nM] | IC50 (hGRP-receptor [3]) [nM] | IC50 (hGRP-receptor [4]) [nM] | IC50 (hBRS-3 receptor) [nM] | IC50 (hNMB-receptor [5]) [nM] | IC50 (hNMB-receptor [6]) [nM] | selectivity for hGRP-receptor over hNMB-receptor (binding affinities) (hGRP-receptor [7]) | further results
1 | CSCC[C@H](NC(=O)[C@@H](Cc1c[nH]c2ccccc12)NC(=O)[C@@H](Cc1c[nH]c2ccccc12)NC(=O)[C@H](Cc1ccccc1)NC(=O)[C@@H](Cc1c[nH]c2ccccc12)NC(=O)[C@H](CCC(N)=O)NC(=O)[C@H](CCC(N)=O)NC(=O)[C@H]1CCCN1)C(N)=O [Peptide 4, [D-Pro^4, D-Trp^7,9,10]SP-(4-11)] (H-[dP]QQ[dW]F[dW][dW]M-NH2) | > 3000 | > 10000 | > 10000 | > 3000 | 2300 ± 400 | > 10000 | 7080 ± 344 | – | [3H]IP NCI-H1299 (hNMB-R) EC50 (hNMB-receptor [6]; stimulation of [3H]IP generation): No act
2 | CC(C)C[C@H](NC(=O)[C@H](Cc1cnc[nH]1)NC(=O)CNC(=O)[C@@H](NC(=O)[C@H](C)NC(=O)[C@H](Cc1c[nH]c2ccccc12)NC(=O)[C@H](CCC(N)=O)NC(=O)[C@H](N)Cc1ccccc1)C(C)C)C(N)=O [Peptide 8, [D-Phe^6]Bn(6-13)NH2] | 416 ± 8 | > 10000 | 4.93 ± 0.39 | 398 ± 11 | > 10000 | > 10000 | > 10000 | – | –
3 | CCCNC(=O)[C@H](CC(C)C)NC(=O)[C@H](Cc1c[nH]cn1)NC(=O)CNC(=O)[C@@H](NC(=O)[C@H](C)NC(=O)[C@H](Cc1c[nH]c2ccccc12)NC(=O)[C@H](CCC(N)=O)NC(=O)[C@H](N)Cc1ccccc1)C(C)C [Peptide 11, [D-Phe^6-Bn](6-13)Propylamide (PA)] | 31 ± 1 | 3090 ± 70 | 0.39 ± 0.12 | 36.3 ± 1 | 1910 ± 300 | 2440 ± 160 | – | ≥ 1,000 fold | –
4 | COC(=O)[C@H](CC(C)C)NC(=O)[C@H](Cc1c[nH]cn1)NC(=O)CNC(=O)[C@@H](NC(=O)[C@H](C)NC(=O)[C@H](Cc1c[nH]c2ccccc12)NC(=O)[C@H](CCC(N)=O)NC(=O)[C@H](N)Cc1ccccc1)C(C)C [Peptide 17, [D-Phe^6]Bn-(6-13)Methyl ester (ME)] | 15.5 ± 1 | > 10000 | 3.98 ± 0.8 | 10.9 ± 1.5 | 5290 ± 1990 | > 10000 | > 10000 | > 10,000 fold | –
5 | COC(=O)[C@H](CC(C)C)NC(=O)[C@H](Cc1c[nH]cn1)NC(=O)[C@@H](C)NC(=O)[C@@H](NC(=O)[C@H](C)NC(=O)[C@H](Cc1c[nH]c2ccccc12)NC(=O)[C@H](CCC(N)=O)NC(=O)[C@H](N)Cc1c(F)c(F)c(F)c(F)c1F)C(C)C [Peptide 18, [D-F-5, Phe^6, D-Ala^11]Bn(6-13)Metyl ester (ME)] (H-[dPhe(F5)]QWAV[dA]HL-OMe) | 3.6 ± 0.2 | > 10000 | 0.12 ± 0.01 | 4.2 ± 0.9 | > 10000 | > 10000 | – | > 11,000 fold and > 10,000 fold | –
6 | CCOC(=O)[C@H](CC(C)C)NC(=O)[C@H](Cc1c[nH]cn1)NC(=O)CNC(=O)[C@@H](NC(=O)[C@H](C)NC(=O)[C@H](Cc1c[nH]c2ccccc12)NC(=O)[C@H](CCC(N)=O)NC(=O)[C@H](N)Cc1ccccc1)C(C)C [Peptide 20, [D-Phe^6]Bn-(6-13)Ethyl ester] | 2 ± 0.3 | > 10000 | 0.14 ± 0.03 | 1.4 ± 0.8 | 5300 ± 1400 | > 10000 | – | > 10,000 fold | –
7 | COc1ccc(C2(CNC(=O)C(C)(Cc3c[nH]c4ccccc34)NC(=O)Nc3ccc([N+](=O)[O-])cc3)CCCCC2)nc1 (stereo not drawn) [Peptide 33, 3-(1H-Indol-3-yl)-N-[1-(5-methoxy-pyridin-2-yl)-cyclohexylmethyl]-2-methyl-2-[3-(4-nitro-phenyl)-ureido]-propionamide, reference compound] | – | – | 170 ± 11 | 275 ± 13 | > 10000 | – | – | – | [3H]IP hGRPR-R-Balb-3T3 Ag/Antag (hGRP-receptor [1]): Antag; [3H]IP hNMB-R-Balb-3T3 Ag/Antag (hNMB-receptor [8]): Antag; agonist activity at hNMB-receptor (hNMB-receptor [8]): did not have agonist activity; [3H]IP HuTu-80 (hGRP-R) Ag/Antag (hGRP-receptor [4]): Antag; affinity for hGRP-receptors in a second study (hGRP-receptors): 20 to 30 nM; Ki (hGRP-receptors; read-out: Ki for hGRP-receptors in a previous study): 1 nM; [3H]IP NCI-H1299 (hNMB-R) Ag/Antag (hNMB-receptor [6]): Antag
8 | CC(Cc1c[nH]c2ccccc12)(NC(=O)Nc1ccc([N+](=O)[O-])cc1)C(=O)NCC1(c2ccccn2)CCCCC1 (stereo not drawn) [Peptide 34, 3-(1H-Indol-3-yl)-2-methyl-2-[3(4-nitro-phenyl)-ureido]-N-(1-pyridin-2-yl-cyclohexylmethyl)-propionamide, reference compound] | > 3000 | 0.25 ± 0.02 | 1740 ± 105 | 1780 ± 57 | > 10000 | 0.51 ± 0.02 | 24.5 ± 1.2 | – | [3H]IP hGRPR-R-Balb-3T3 Ag/Antag (hGRP-receptor [1]): No act; selectivity for hNMB-receptor over hGRP-receptor based on potency for inhibiting agonist-stimulated [3H]IP (hNMB-receptor [8]): 33 to 100 fold; [3H]IP hNMB-R-Balb-3T3 Ag/Antag (hNMB-receptor [8]): Antag; agonist activity at hNMB-receptor (hNMB-receptor [8]): did not have agonist activity; hGRPR Ag/Antag (hGRP-receptor [4]; Table 5 species comparison, human values of this study (HuTu-80)): Antag; [3H]IP HuTu-80 (hGRP-R) Ag/Antag (hGRP-receptor [4]): Antag; selectivity for hNMB-receptor over hGRP-receptor (binding affinities) (hNMB-receptor [5]; listed as PD168368): 7,000 fold; hNMB- or rNMB-receptor selectivity in other studies (hNMB-receptor [9]): 40 fold; IC50 (hNMB-receptor [9]; read-out: IC50 for hNMB-receptors, other studies on human cells): 15 nM; hNMBR Ag/Antag (hNMB-receptor [6]; Table 5 species comparison, human values of this study (NCI-H1299)): Antag; [3H]IP NCI-H1299 (hNMB-R) Ag/Antag (hNMB-receptor [6]): Antag
